In patent US20150105252A1, “SUBSTITUTED PYRAZOLES AS HERBICIDES” (E I DU PONT DE NEMOURS AND COMPANY, priority 2013, published 2015):

Columns and labels:
barnyardgrass [1] = assay: Test A preemergence; type: in vivo, Echinochloa crus-galli; settings: preemergence
Outline: (§1)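 Ratings express plant response from 0 (no effect) to 100 (complete control), judged visually against untreated controls after approximately 10 days in the greenhouse. Preemergence applications were made as directed soil sprays onto seeded loam–sand mix, and postemergence applications onto 2–10 cm plants at one- to two-leaf stage.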

crabgrass, large [2] = assay: Test A preemergence; type: in vivo, Digitaria sanguinalis; settings: preemergence
Outline: as §1

velvetleaf [3] = assay: Test A preemergence; type: in vivo, Abutilon theophrasti; settings: preemergence
Outline: as §1

barnyardgrass [4] = assay: Test A postemergence; type: in vivo, Echinochloa crus-galli
Outline: as §1

crabgrass, large [5] = assay: Test A postemergence; type: in vivo, Digitaria sanguinalis
Outline: as §1

pigweed = assay: Test A postemergence; type: in vivo, Amaranthus retroflexus
Outline: as §1

nutsedge, yellow = assay: Test C preemergence; type: in vivo, Cyperus esculentus; settings: for Nutsedge, Yellow plant response rating / Plant response rating, Nutsedge, Yellow: preemergence; for Plant response rating, Nutsedge, Yellow: 125 g ai/ha, scale 0 to 100, 0 = no effect, 100 = complete control
Outline: (§2)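 Greenhouse pot test: preemergence application onto freshly seeded loam/sand mix, postemergence application onto seedlings (1–4 leaves, 2–18 cm) in peat-vermiculite substrate. Responses scored visually 13 to 15 days later relative to controls, where 0 means no effect and 100 means complete control; a dash indicates no result.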

soybean [6] = assay: Test C preemergence; type: in vivo, Glycine max; settings: for Soybean plant response rating / Plant response rating, Soybean: preemergence; for Plant response rating, Soybean: 125 g ai/ha, scale 0 to 100, 0 = no effect, 100 = complete control
Outline: as §2

oilseed rape [7] = assay: Test C preemergence; type: in vivo, Brassica napus; settings: for Oilseed Rape plant response rating / Plant response rating, Oilseed Rape: preemergence; for Plant response rating, Oilseed Rape: 125 g ai/ha, scale 0 to 100, 0 = no effect, 100 = complete control
Outline: as §2

velvetleaf [8] = assay: Test C preemergence; type: in vivo, Abutilon theophrasti; settings: for Velvetleaf plant response rating / Plant response rating, Velvetleaf: preemergence; for Plant response rating, Velvetleaf: 125 g ai/ha, scale 0 to 100, 0 = no effect, 100 = complete control
Outline: as §2

wheat = assay: Test C postemergence; type: in vivo, Triticum aestivum; settings: for Plant response rating, Wheat / Wheat plant response rating: postemergence; for Wheat plant response rating: scale 0 to 100
Outline: as §2

corn = assay: Test C postemergence; type: in vivo, Zea mays; settings: for Plant response rating (scale of 0 to 100 where 0 is no effect and 100 is complete control), Corn: Postemergence, 31 g ai/ha, visually evaluated after 13 to 15 days; for Corn plant response rating / Plant response rating, Corn: postemergence; for Corn plant response rating: 62 g ai/ha, scale 0 to 100
Outline: as §2

soybean [9] = assay: Test C postemergence; type: in vivo, Glycine max; settings: for Plant response rating, Soybean / Soybean plant response rating: postemergence
Outline: as §2

barnyardgrass [10] = assay: Test C postemergence; type: in vivo, Echinochloa crus-galli; settings: for Plant response rating (scale of 0 to 100 where 0 is no effect and 100 is complete control), Barnyardgrass: Postemergence, 31 g ai/ha, visually evaluated after 13 to 15 days; for Barnyardgrass plant response rating / Plant response rating, Barnyardgrass: postemergence; for Barnyardgrass plant response rating: 62 g ai/ha, scale 0 to 100
Outline: as §2

oilseed rape [11] = assay: Test C postemergence; type: in vivo, Brassica napus; settings: for Oilseed Rape plant response rating / Plant response rating, Oilseed Rape: postemergence; for Oilseed Rape plant response rating: 62 g ai/ha, scale 0 to 100
Outline: as §2

velvetleaf [12] = assay: Test C postemergence; type: in vivo, Abutilon theophrasti; settings: for Plant response rating, Velvetleaf / Velvetleaf plant response rating: postemergence; for Velvetleaf plant response rating: scale 0 to 100
Outline: as §2

[13] = 125 g ai/ha, visual injury approx. 10 days after treatment
[14] = 500 g ai/ha, visual injury after approx. 10 days, 0 to 100 scale (0 no effect, 100 complete control)
[15] = Postemergence, 500 g ai/ha, 0 to 100 scale (0 no effect, 100 complete control)
[16] = postemergence, 125 g ai/ha, about 10 days, visual rating on 0 to 100 scale (0 no effect, 100 complete control)
[17] = 31 g ai/ha, visual rating, scale 0 to 100 (0 no effect, 100 complete control), 13 to 15 days
[18] = 62 g ai/ha, scale 0 to 100 (0 no effect, 100 complete control), 13 to 15 days
[19] = 250 g ai/ha, scale 0 to 100, 0 is no effect, 100 is complete control
[20] = 250 g ai/ha, scale 0 to 100 (0 no effect, 100 complete control)
[21] = 125 g ai/ha, scale 0 to 100, 0 no effect, 100 complete control
[22] = 125 g ai/ha, visual injury, 0 to 100 scale, approx. 10 days
[23] = Postemergence, 31 g ai/ha, visually evaluated after 13 to 15 days

CCCc1cc(C(=O)NC(C)C)nn1Cc1cc(C(F)(F)F)nn1C [Compound 201]
Barnyardgrass plant response rating (0 to 100 scale, 0 is no effect, 100 is complete control) (barnyardgrass [1]; [13]): 100
Barnyardgrass plant response rating (barnyardgrass [1]; [14]): 100
Crabgrass, Large plant response rating (0 to 100 scale) (crabgrass, large [2]; [13]): 100
Crabgrass, Large plant response rating (crabgrass, large [2]; [14]): 100
Velvetleaf plant response rating (0 to 100 scale) (velvetleaf [3]; [13]): 100
Velvetleaf plant response rating (velvetleaf [3]; [14]): 100
Barnyardgrass plant response rating (barnyardgrass [4]; [15]): 100
Barnyardgrass plant response rating (barnyardgrass [4]; [16]): 80
Crabgrass, Large plant response rating (crabgrass, large [5]; [15]): 100
Crabgrass, Large plant response rating (crabgrass, large [5]; [16]): 90
Pigweed plant response rating (pigweed; Postemergence, 125 g ai/ha, 0 to 100 scale, 0 no effect, 100 complete control): 100
Pigweed plant response rating (pigweed; [15]): 100
Nutsedge, Yellow plant response rating (nutsedge, yellow; [17]): 5
Nutsedge, Yellow plant response rating (nutsedge, yellow; [18]): 20
Plant response rating, Nutsedge, Yellow (nutsedge, yellow; 13 to 15 days): 55
Nutsedge, Yellow plant response rating (nutsedge, yellow; [19]): 80
Soybean plant response rating (soybean [6]; [17]): 70
Soybean plant response rating (soybean [6]; [18]): 85
Plant response rating, Soybean (soybean [6]; 13 to 15 days): 95
Soybean plant response rating (soybean [6]; [19]): 98
Oilseed Rape plant response rating (oilseed rape [7]; [17]): 100
Oilseed Rape plant response rating (oilseed rape [7]; [18]): 100
Plant response rating, Oilseed Rape (oilseed rape [7]; 13 to 15 days): 100
Oilseed Rape plant response rating (oilseed rape [7]; [19]): 95
Velvetleaf plant response rating (velvetleaf [8]; [17]): 90
Velvetleaf plant response rating (velvetleaf [8]; [18]): 100
Plant response rating, Velvetleaf (velvetleaf [8]; 13 to 15 days): 100
Velvetleaf plant response rating (velvetleaf [8]; [19]): 100
Plant response rating, Wheat (wheat; [20]): 10
Wheat plant response rating (wheat): 5
Plant response rating (scale of 0 to 100 where 0 is no effect and 100 is complete control), Corn (corn): 10
Corn plant response rating (corn): 10
Plant response rating, Corn (corn; [20]): 60
Plant response rating, Corn (corn; [21]): 15
Plant response rating, Soybean (soybean [9]; [20]): 98
Soybean plant response rating (soybean [9]; [21]): 95
Plant response rating (scale of 0 to 100 where 0 is no effect and 100 is complete control), Barnyardgrass (barnyardgrass [10]): 5
Barnyardgrass plant response rating (barnyardgrass [10]): 10
Plant response rating, Barnyardgrass (barnyardgrass [10]; [20]): 60
Plant response rating, Barnyardgrass (barnyardgrass [10]; [21]): 35
Oilseed Rape plant response rating (oilseed rape [11]): 60
Plant response rating, Oilseed Rape (oilseed rape [11]; [20]): 80
Plant response rating, Oilseed Rape (oilseed rape [11]; [21]): 50
Plant response rating, Velvetleaf (velvetleaf [12]; [20]): 80
Velvetleaf plant response rating (velvetleaf [12]): 60

CCONC(=O)c1cc(CC)n(Cc2ccnc(OC(F)F)c2)n1 [Compound 131]
Barnyardgrass plant response rating (barnyardgrass [1]; [22]): 100
Barnyardgrass plant response rating (barnyardgrass [1]; [14]): 100
Crabgrass, Large plant response rating (crabgrass, large [2]; [22]): 100
Crabgrass, Large plant response rating (crabgrass, large [2]; [14]): 100
Velvetleaf plant response rating (velvetleaf [3]; [22]): 90
Velvetleaf plant response rating (velvetleaf [3]; [14]): 100
Barnyardgrass plant response rating (barnyardgrass [4]; [15]): 90
Barnyardgrass plant response rating (barnyardgrass [4]; [16]): 80
Crabgrass, Large plant response rating (crabgrass, large [5]; [15]): 90
Crabgrass, Large plant response rating (crabgrass, large [5]; [16]): 70
Pigweed plant response rating (pigweed; [15]): 100
Pigweed plant response rating (pigweed; [16]): 100
Plant response rating (scale of 0 to 100), Nutsedge, Yellow (nutsedge, yellow; Preemergence, 250 g ai/ha): 90
Nutsedge, Yellow plant response rating (nutsedge, yellow; [17]): 45
Nutsedge, Yellow plant response rating (nutsedge, yellow; [18]): 50
Plant response rating, Nutsedge, Yellow (nutsedge, yellow; 13 to 15 days): 95
Plant response rating (scale of 0 to 100), Soybean (soybean [6]; Preemergence, 250 g ai/ha): 98
Soybean plant response rating (soybean [6]; [17]): 30
Soybean plant response rating (soybean [6]; [18]): 40
Plant response rating, Soybean (soybean [6]; 13 to 15 days): 85
Plant response rating (scale of 0 to 100), Oilseed Rape (oilseed rape [7]; Preemergence, 250 g ai/ha): 100
Oilseed Rape plant response rating (oilseed rape [7]; [17]): 95
Oilseed Rape plant response rating (oilseed rape [7]; [18]): 100
Plant response rating, Oilseed Rape (oilseed rape [7]; 13 to 15 days): 98
Plant response rating (scale of 0 to 100), Velvetleaf (velvetleaf [8]; Preemergence, 250 g ai/ha): 100
Velvetleaf plant response rating (velvetleaf [8]; [17]): 25
Velvetleaf plant response rating (velvetleaf [8]; [18]): 80
Plant response rating, Velvetleaf (velvetleaf [8]; 13 to 15 days): 100
Plant response rating (scale of 0 to 100 where 0 is no effect and 100 is complete control), Wheat (wheat; [23]): 5
Wheat plant response rating (wheat; 62 g ai/ha): 5
Plant response rating, Wheat (wheat; [20]): 10
Plant response rating, Wheat (wheat; [21]): 10
Plant response rating (scale of 0 to 100 where 0 is no effect and 100 is complete control), Corn (corn): 5
Corn plant response rating (corn): 5
Plant response rating, Corn (corn; [20]): 50
Plant response rating, Corn (corn; [21]): 5
Plant response rating (scale of 0 to 100 where 0 is no effect and 100 is complete control), Soybean (soybean [9]; [23]): 20
Soybean plant response rating (soybean [9]; 62 g ai/ha, scale 0 to 100): 25
Plant response rating, Soybean (soybean [9]; [20]): 80
Plant response rating, Soybean (soybean [9]; [21]): 35
Plant response rating (scale of 0 to 100 where 0 is no effect and 100 is complete control), Barnyardgrass (barnyardgrass [10]): 5
Barnyardgrass plant response rating (barnyardgrass [10]): 5
Plant response rating, Barnyardgrass (barnyardgrass [10]; [20]): 45
Plant response rating, Barnyardgrass (barnyardgrass [10]; [21]): 10
Plant response rating (scale of 0 to 100 where 0 is no effect and 100 is complete control), Oilseed Rape (oilseed rape [11]; [23]): 30
Oilseed Rape plant response rating (oilseed rape [11]): 35
Plant response rating, Oilseed Rape (oilseed rape [11]; [20]): 60
Plant response rating, Oilseed Rape (oilseed rape [11]; [21]): 40
Plant response rating (scale of 0 to 100 where 0 is no effect and 100 is complete control), Velvetleaf (velvetleaf [12]; [23]): 5
Velvetleaf plant response rating (velvetleaf [12]; 62 g ai/ha): 25
Plant response rating, Velvetleaf (velvetleaf [12]; [20]): 55
Plant response rating, Velvetleaf (velvetleaf [12]; [21]): 35
